Experiments:
[1] = test system: plasma proteins (preponderantly albumen); settings: cited from earlier work
[2] = in vivo, cited from earlier work
[3] = test system: HTLV-III virus (viral protein p24); test: propagation of HTLV-III in H9 cells, formation of viral protein p24, immunofluorescence with monoclonal antibodies; format: cell-based, HTLV-III virus in H9 cells (human T-cell line); settings: for prevention of the formation of p24 (in words): FIG. 2, same manner as with p15; for IC100: Human immunodeficiency virus 1, H9, 96 h, p24, FIG. 2, 4th day after infection, read-out: concentration needed for complete inactivation of the viral replication
Method: FIG. 2 is a similar graph where the determination was by the formation of viral protein p24.
(§1) HTLV-III virus infection of H9 cells (human T-cell line of a leukemia patient of the National Cancer Institute, Bethesda, Md., USA); the H9 cells were trreated with Polybrene (Hexadimethrine bromide) (2 μg/ml) for 30 minutes at 37° C., subsequently the Polybrene was washed out and the cells were infected with 2×10^8 HTLV virus particles per 4×10^5 H9 cells. Before the infection, the virus was incubated with the material at various concentrations for 45 minutes at 37° C. For controls, the virus was incubated under the same experimental conditions but without addition of the material. The cell cultures were analyzed on the 4th day after infection as follows:
(§2) Immunofluorescence analysis: The effect of D- and L-penicillamine on the propagation of the HTLV-III virus in H9 cells was determined by measuring the proteins p15 and p24 (molecular weight 15,000 respectively 24,000) present in HTLV-III. The immunofluorescence analysis was carried out on fixed methanol:acetone (1:1) cells using monoclonal antibodies (National Cancer Institute USA) against HTLV-III p15 and p24. The infected cells treated with or without penicillamine were secured on toxoplasmosis glass slides. After 30 minutes treatment with methanol-acetone (1:1) at room temperature, the glass slides were stored in closed plastic containers at -20° C. until use. The monoclonal antibodies were added to duplicate wells, incubated at room temperature in a moist chamber for 1 hour and washed with PBS (phosphate buffered saline) solution containing 0.25% Triton X-100 for two hours. The cells were then exposed to goatantimouse IgG (Capell Labs.) bound with fluorescein (FITC) for 1 hour and washed with PBS buffer solution containing 0.25% Triton X-100 overnight. The glass sides were mounted with 50% glycerine and the cell fluorescence observed with a Zeiss fluorescence microscope.
(§3) The effect of D- and L-penicillamine on the propagation of HTLV-III in H9 cells was determined through the function of the material concentration by the formation of the viral proteins p15 (FIG. 1) and p24 (FIG. 2) in an immunofluorescence assay with monoclonal antibodies.

in vitro = format: cell-based, human; settings: human, h9 cells
Method: as §1
(§4) In order to show the selectivity of the effect on the replication of HTLV-III virus, the effect of D- and L-penicillamine on the growth of H9 cells can be examined.
(§5) The number of cells was determined 4 days after the experiment began.

[4] = test system: HTLV-III virus (LAV-I virus); test: inhibition of HTLV-III (LAV-I) virus replication in cell culture; format: cell-based, HTLV-III virus in H9 cells (human T-cell line); settings: in vitro; for inhibition at 20 µg/mL / inhibition at 40 µg/mL: Human immunodeficiency virus 1, H9, 96 h, cell culture; for inhibition at 20 µg/mL: 20 μg/ml, read-out: prevention of replication of HTLV-III virus (LAV-I virus); for inhibition at 40 µg/mL: 40 μg/ml, read-out: effectiveness in vitro (prevention of virus replication)
Method: At a concentrate of 20 μg/ml the replication of HTLV-III--virus (LAV-I-virus) is prevented in a cell culture with L-penicillamine to an extent of about 95% and with D-penicillamine to about 80%. At a concentration of 40 μg/ml, the effectiveness of both L-penicillamine and D-penicillamine in vitro is nearly 100%.
as §1, §2

[5] = test system: HTLV-III infected H9 cells; test: growth of HTLV-III infected H9 cells; format: cell-based, human; settings: for Number of cells/ml × 10^-6, infected / effect on number of infected H9 cells (in words): 4 days after infection; for Number of cells/ml × 10^-6, infected: control 0.18; for effect on number of infected H9 cells (in words): increasing concentration; for protective effect on T-cells: infected H9 cells
Method: as §1, §4, §5
4 days after the infection with the HTLV-III virus the number of H9 cells is reduced from 1.24×10^6 to 0.18×10^6.

[6] = test system: HTLV-III virus (viral protein p15); test: propagation of HTLV-III in H9 cells, formation of viral protein p15, immunofluorescence with monoclonal antibodies; format: cell-based, HTLV-III virus in H9 cells (human T-cell line); settings: for prevention of the formation of p15 virus protein (in words): FIG. 1, concentration dependence; for inhibition at 40 µg/mL: Human immunodeficiency virus 1, H9, 40 μg/ml, 4th day after infection
Method: FIG. 1 is a graph of the effect of D- and L-penicillamine on the propagation of HTLV-III in H9 cells through the function of the concentration determined by the formation of the viral protein 15; and
as §1, §2, §3

non-infected H9 cells = test: in vitro; format: cell-based, human
Method: as §1, §4, §5

| SMILES | prevention of the formation of p24 (in words) [3] | IC100 [3] [µg/mL] | inhibition at 20 µg/mL [4] [%] | inhibition at 40 µg/mL [4] [%] | Number of cells/ml × 10^-6, infected ([5]; 30 μg/ml) [cells/ml × 10^-6] | Number of cells/ml × 10^-6, infected ([5]; 40 μg/ml) [cells/ml × 10^-6] | Number of cells/ml × 10^-6, infected ([5]; 100 μg/ml) [cells/ml × 10^-6] | effect on number of infected H9 cells (in words) [5] | protective effect on T-cells [5] | prevention of the formation of p15 virus protein (in words) [6] | inhibition at 40 µg/mL [6] [%] | other results |
| --- | --- | --- | --- | --- | --- | --- | --- | --- | --- | --- | --- | --- |
| CC(C)(S)[C@@H](N)C(=O)O [D-penicillamine] | prevent the formation of p24 | 40 | ~80 | ~100 | 0.27 | 0.35 | 0.8 | considerable increase of the cell number | protective effect on T-cells | concentration dependent prevention of the formation of p15 virus protein | 98.5 to 99.4 | binding to plasma proteins [1]: bound to plasma proteins (preponderantly albumen); free (not protein bound) concentration with increasing dosage [1]: obviously increases with increasing dosage; resorption after oral administration ([2]; po): about 60%; distribution over the entire organism [2]: distributed relatively quickly over the entire organism; elimination in unchanged form [2]: up to 10%; route and form of elimination [2]: predominantly via the kidneys, the greatest part as disulfide; MCC at 96 h (in vitro): > 100 µg/mL |
| CC(C)(S)[C@H](N)C(=O)O [L-penicillamine] | prevent the formation of p24 | 40 | ~95 | ~100 | 0.35 | 0.38 | 0.98 | considerable increase of the cell number | protective effect on T-cells | concentration dependent prevention of the formation of p15 virus protein | 98.5 to 99.4 | effectiveness at lower concentration, L- versus D-penicillamine (p15) ([6]; lower concentration, FIG. 1): more effective than D-penicillamine |
| CC(C)(S)[C@H](N)C(=O)O [penicillamine] | – | – | – | – | – | – | – | – | – | – | – | toxicity to the normal cell growth (non-infected H9 cells): shows no toxicity to the normal cell growth; inhibition of virus replication (in words) [4]: can greatly inhibit the virus replication |
